Read-outs that look alike come from different tables or passages of the source.
Experiments:
Experiment in all cases: SelectScreen kinase panel screening
Format in all cases: biochemical
CSF1R (FMS) = CSF1R (FMS) (Homo sapiens (Human), UniProt P07333)
Source text: (§1) The complete list of the kinases given in Table 1 and their details can be found on the ThermoFisher website for Biochemical Kinase assays (thermofisher.com/us/en/home/industrial/pharma-biopharma/drug-discovery-development/target-and-lead-identification-and-validation/kinasebiology.html).

SPHK1 = SPHK1 (Homo sapiens (Human), UniProt Q9NYA1); conditions: read-out: % Inhibition class
Source text: as §1

SYK = SYK (Homo sapiens (Human), UniProt P43405)
Source text: as §1

CHEK2 (CHK2) = CHEK2 (CHK2) (Homo sapiens (Human), UniProt O96017)
Source text: as §1

TEK (Tie2) = TEK (Tie2) (Homo sapiens (Human), UniProt Q02763)
Source text: as §1

AKT1 (PKB alpha) = AKT1 (PKB alpha) (Homo sapiens (Human), UniProt P31749)
Source text: as §1

NEK2 = NEK2 (Homo sapiens (Human), UniProt P51955)
Sequence of NEK2 (P51955 whole entry): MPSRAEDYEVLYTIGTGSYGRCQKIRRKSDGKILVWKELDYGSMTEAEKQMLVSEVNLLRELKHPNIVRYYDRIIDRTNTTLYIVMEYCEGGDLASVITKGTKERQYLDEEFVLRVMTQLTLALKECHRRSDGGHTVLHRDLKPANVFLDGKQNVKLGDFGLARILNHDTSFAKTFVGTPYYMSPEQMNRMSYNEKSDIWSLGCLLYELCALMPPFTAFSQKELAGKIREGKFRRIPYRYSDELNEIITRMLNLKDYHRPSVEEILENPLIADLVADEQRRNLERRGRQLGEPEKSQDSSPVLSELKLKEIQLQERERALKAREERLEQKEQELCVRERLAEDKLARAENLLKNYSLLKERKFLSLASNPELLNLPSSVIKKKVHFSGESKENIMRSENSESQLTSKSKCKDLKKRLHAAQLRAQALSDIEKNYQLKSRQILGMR
Source text: as §1

PDK1 Direct = PDK1 Direct (Homo sapiens (Human), UniProt O15530)
Source text: as §1

RAF1 (cRAF) Y340D Y341D = RAF1 (cRAF) Y340D Y341D (Homo sapiens (Human), UniProt P04049, Y340D/Y341D)
Sequence of RAF1 (cRAF) Y340D Y341D (P04049 whole entry Y340D/Y341D): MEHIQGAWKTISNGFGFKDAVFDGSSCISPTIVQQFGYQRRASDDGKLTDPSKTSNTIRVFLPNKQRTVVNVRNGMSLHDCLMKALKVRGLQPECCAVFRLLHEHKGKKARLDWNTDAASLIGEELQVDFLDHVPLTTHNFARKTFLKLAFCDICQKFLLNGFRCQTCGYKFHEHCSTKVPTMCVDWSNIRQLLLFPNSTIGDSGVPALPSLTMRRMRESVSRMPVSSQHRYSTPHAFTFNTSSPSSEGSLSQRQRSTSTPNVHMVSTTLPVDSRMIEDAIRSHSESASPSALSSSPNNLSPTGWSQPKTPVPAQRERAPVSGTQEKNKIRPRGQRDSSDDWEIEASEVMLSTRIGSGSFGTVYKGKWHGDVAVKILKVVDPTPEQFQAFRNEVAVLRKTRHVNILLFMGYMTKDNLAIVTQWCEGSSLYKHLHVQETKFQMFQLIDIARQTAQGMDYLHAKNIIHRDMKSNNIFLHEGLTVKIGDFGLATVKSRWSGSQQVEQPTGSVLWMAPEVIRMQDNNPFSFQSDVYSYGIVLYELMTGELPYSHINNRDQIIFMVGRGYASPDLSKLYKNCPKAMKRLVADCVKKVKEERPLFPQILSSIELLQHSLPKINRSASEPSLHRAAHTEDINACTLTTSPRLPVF
Source text: as §1

[1] = biological target: PIK3CA/PIK3R1 (p110 alpha/p85 alpha) (Homo sapiens (Human), UniProt P42336); conditions: read-out: % Inhibition class
Source text: as §1

CDC42 BPB (MRCKB) = CDC42 BPB (MRCKB) (Homo sapiens (Human), UniProt Q9Y5S2)
Source text: as §1

ABL1 = ABL1 (Homo sapiens (Human), UniProt P00519)
Source text: as §1

ERBB4 (HER4) = ERBB4 (HER4) (Homo sapiens (Human), UniProt Q15303)
Source text: as §1

FRAP1 (mTOR) = FRAP1 (mTOR) (Homo sapiens (Human), UniProt P42345)
Source text: as §1

EPHA2 = EPHA2 (Homo sapiens (Human), UniProt P29317)
Source text: as §1

CDK9/cyclin T1 = CDK9/cyclin T1 (Homo sapiens (Human), UniProt P50750)
Sequence of CDK9/cyclin T1 (P50750 whole entry): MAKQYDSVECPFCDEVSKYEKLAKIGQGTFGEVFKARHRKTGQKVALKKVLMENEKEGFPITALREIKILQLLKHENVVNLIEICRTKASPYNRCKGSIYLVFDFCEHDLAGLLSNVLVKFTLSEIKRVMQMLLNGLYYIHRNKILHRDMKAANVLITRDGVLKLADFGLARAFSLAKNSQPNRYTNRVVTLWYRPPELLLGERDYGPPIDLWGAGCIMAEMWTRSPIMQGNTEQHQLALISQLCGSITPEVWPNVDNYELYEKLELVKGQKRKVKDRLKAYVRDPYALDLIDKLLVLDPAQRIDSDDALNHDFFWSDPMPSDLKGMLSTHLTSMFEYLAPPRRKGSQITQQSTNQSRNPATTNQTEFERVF
Sequence of CDK9/cyclin T1 (O60563 whole entry partner): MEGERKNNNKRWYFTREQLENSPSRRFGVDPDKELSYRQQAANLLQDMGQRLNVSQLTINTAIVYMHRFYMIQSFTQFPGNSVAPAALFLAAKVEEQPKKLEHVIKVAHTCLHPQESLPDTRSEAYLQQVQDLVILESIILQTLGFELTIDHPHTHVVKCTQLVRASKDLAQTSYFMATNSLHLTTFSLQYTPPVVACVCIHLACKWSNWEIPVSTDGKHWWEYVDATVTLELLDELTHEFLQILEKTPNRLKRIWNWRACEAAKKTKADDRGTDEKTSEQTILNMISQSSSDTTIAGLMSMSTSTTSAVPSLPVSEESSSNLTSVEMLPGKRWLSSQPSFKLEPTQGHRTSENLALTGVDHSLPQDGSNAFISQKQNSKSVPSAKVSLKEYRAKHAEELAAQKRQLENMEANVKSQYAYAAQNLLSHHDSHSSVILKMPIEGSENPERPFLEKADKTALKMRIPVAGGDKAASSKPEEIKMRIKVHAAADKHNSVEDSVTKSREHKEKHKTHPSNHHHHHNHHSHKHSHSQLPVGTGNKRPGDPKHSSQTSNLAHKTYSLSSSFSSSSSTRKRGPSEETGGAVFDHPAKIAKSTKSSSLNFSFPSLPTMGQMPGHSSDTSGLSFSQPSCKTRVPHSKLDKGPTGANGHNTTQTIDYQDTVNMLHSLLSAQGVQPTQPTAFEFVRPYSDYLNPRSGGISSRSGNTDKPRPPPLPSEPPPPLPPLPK
Source text: as §1

PTK2B (FAK2) = PTK2B (FAK2) (Homo sapiens (Human), UniProt Q14289)
Source text: as §1

FLT3 = FLT3 (Homo sapiens (Human), UniProt P36888)
Source text: as §1

AURKA (Aurora A) = AURKA (Aurora A) (Homo sapiens (Human), UniProt O14965)
Source text: as §1

ABL2 (Arg) = ABL2 (Arg) (Homo sapiens (Human), UniProt P42684)
Sequence of ABL2 (Arg) (P42684 whole entry): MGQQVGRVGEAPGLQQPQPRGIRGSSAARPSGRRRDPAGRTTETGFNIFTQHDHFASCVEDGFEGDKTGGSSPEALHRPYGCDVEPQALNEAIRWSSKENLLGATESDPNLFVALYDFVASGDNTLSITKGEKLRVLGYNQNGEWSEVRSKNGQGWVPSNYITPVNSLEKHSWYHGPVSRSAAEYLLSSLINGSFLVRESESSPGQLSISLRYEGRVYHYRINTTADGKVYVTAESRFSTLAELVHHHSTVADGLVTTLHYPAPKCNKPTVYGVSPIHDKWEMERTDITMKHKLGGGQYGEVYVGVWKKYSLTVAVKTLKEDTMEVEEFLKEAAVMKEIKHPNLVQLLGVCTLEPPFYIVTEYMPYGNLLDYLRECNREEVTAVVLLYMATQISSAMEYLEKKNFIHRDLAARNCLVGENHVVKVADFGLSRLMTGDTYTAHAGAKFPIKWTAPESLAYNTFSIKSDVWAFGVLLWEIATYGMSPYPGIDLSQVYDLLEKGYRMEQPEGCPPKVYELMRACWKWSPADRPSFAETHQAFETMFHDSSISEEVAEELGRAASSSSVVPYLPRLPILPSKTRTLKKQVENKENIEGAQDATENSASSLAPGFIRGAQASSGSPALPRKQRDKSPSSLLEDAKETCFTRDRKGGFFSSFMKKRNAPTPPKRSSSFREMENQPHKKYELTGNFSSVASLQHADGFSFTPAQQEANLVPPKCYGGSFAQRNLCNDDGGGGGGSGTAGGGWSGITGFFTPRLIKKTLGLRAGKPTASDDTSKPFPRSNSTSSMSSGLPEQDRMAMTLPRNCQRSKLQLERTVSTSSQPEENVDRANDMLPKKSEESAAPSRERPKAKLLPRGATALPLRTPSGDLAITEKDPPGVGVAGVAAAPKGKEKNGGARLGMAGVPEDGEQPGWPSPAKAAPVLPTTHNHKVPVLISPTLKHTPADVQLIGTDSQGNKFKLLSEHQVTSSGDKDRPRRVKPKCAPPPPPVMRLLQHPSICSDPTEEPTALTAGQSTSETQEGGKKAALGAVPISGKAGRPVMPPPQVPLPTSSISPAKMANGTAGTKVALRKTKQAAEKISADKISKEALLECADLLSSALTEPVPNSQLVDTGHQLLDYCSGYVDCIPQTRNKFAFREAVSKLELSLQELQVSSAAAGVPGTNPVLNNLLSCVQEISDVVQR
Source text: as §1

PTK2 (FAK) = PTK2 (FAK) (Homo sapiens (Human), UniProt Q05397)
Source text: as §1

JAK3 = JAK3 (Homo sapiens (Human), UniProt P52333)
Source text: as §1

MAP2K1 (MEK1) = MAP2K1 (MEK1) (Homo sapiens (Human), UniProt Q02750)
Source text: as §1

FGFR4 = FGFR4 (Homo sapiens (Human), UniProt P22455)
Source text: as §1

ALK = ALK (Homo sapiens (Human), UniProt Q9UM73)
Source text: as §1

JAK1 = JAK1 (Homo sapiens (Human), UniProt P23458)
Sequence of JAK1 (P23458 whole entry): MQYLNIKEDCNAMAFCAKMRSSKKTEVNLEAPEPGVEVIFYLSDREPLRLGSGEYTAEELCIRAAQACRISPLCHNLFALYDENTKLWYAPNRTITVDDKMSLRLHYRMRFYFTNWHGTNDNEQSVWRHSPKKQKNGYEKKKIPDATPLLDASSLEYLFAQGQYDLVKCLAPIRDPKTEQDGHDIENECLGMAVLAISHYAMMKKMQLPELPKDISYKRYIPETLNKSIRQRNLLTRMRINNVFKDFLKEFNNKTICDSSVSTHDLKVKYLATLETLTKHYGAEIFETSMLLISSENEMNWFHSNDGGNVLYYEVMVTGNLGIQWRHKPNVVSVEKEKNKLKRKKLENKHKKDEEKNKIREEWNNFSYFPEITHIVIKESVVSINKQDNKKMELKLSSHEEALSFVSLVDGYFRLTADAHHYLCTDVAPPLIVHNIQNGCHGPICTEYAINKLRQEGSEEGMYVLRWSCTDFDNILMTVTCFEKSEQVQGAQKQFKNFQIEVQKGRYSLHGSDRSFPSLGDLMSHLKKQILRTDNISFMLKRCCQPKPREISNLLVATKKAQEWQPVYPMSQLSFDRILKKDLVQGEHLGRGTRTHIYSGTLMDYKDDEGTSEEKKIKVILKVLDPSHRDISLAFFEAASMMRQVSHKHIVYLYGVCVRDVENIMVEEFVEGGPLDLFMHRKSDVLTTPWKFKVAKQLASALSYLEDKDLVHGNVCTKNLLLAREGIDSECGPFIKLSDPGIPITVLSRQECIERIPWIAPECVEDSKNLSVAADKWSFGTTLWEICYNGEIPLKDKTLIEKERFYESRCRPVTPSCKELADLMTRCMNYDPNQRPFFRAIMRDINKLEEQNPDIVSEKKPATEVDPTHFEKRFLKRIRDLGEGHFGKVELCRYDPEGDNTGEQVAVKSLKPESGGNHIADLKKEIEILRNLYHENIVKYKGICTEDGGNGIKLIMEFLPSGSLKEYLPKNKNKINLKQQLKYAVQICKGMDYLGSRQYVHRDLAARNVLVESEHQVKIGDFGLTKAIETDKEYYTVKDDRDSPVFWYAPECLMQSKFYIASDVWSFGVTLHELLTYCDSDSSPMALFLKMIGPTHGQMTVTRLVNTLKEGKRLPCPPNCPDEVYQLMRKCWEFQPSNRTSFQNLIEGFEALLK
Source text: as §1

RPS6KB1 (p70S6K) = RPS6KB1 (p70S6K) (Homo sapiens (Human), UniProt P23443); conditions: for inhibition at 10 µM: RPS6KB1 (p70S6K)
Sequence of RPS6KB1 (p70S6K) (P23443 whole entry): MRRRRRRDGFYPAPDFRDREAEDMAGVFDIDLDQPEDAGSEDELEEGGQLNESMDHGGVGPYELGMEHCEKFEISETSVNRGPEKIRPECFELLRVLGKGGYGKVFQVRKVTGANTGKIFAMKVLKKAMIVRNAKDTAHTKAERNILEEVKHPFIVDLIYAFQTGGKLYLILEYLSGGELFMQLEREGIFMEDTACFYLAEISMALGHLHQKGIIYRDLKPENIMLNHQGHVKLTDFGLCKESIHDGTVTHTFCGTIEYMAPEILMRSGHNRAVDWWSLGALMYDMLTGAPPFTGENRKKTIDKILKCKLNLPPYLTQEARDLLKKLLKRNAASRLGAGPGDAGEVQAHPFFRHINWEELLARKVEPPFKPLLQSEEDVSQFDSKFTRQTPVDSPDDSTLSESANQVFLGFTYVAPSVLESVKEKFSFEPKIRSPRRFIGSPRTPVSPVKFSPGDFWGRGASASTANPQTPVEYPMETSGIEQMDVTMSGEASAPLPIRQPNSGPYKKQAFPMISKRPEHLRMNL
Source text: as §1
RJ1 was taken as the lead structure for the synthesis of several diamide and monoamide derivatives of 4,6-diaminoisoindolin-1,3-dione.

inhibition at 10 µM (CSF1R (FMS); read-out: % Inhibition): 26%
inhibition at 10 µM (CSF1R (FMS); read-out: % Inhibition class): < 40%
inhibition at 10 µM (SPHK1): < 40%
inhibition at 10 µM (SYK; read-out: % Inhibition): 39%
inhibition at 10 µM (SYK; read-out: % Inhibition class): < 40%
inhibition at 10 µM (CHEK2 (CHK2); read-out: % Inhibition): 38%
inhibition at 10 µM (CHEK2 (CHK2); read-out: % Inhibition class): < 40%
inhibition at 10 µM (TEK (Tie2); read-out: % Inhibition): 20%
inhibition at 10 µM (TEK (Tie2); read-out: % Inhibition class): < 40%
inhibition at 10 µM (AKT1 (PKB alpha); read-out: % Inhibition): 11%
inhibition at 10 µM (AKT1 (PKB alpha); read-out: % Inhibition class): < 40%
inhibition at 10 µM (NEK2; read-out: % Inhibition): -20%
inhibition at 10 µM (NEK2; read-out: % Inhibition class): < 40%
inhibition at 10 µM (PDK1 Direct; read-out: % Inhibition): 33%
inhibition at 10 µM (PDK1 Direct; read-out: % Inhibition class): < 40%
inhibition at 10 µM (RAF1 (cRAF) Y340D Y341D; read-out: % Inhibition): 6%
inhibition at 10 µM (RAF1 (cRAF) Y340D Y341D; read-out: % Inhibition class): < 40%
inhibition at 10 µM [1]: < 40%
inhibition at 10 µM (CDC42 BPB (MRCKB); read-out: % Inhibition): 0%
inhibition at 10 µM (CDC42 BPB (MRCKB); read-out: % Inhibition class): < 40%
inhibition at 10 µM (ABL1; read-out: % Inhibition): 59%
inhibition at 10 µM (ABL1; read-out: % Inhibition class): 40 to 80%
inhibition at 10 µM (ERBB4 (HER4); read-out: % Inhibition): 25%
inhibition at 10 µM (ERBB4 (HER4); read-out: % Inhibition class): < 40%
inhibition at 10 µM (FRAP1 (mTOR); read-out: % Inhibition): 6%
inhibition at 10 µM (FRAP1 (mTOR); read-out: % Inhibition class): < 40%
inhibition at 10 µM (EPHA2; read-out: % Inhibition): 16%
inhibition at 10 µM (EPHA2; read-out: % Inhibition class): < 40%
% Inhibition (CDK9/cyclin T1; 10 μM): 16%
inhibition at 10 µM (CDK9/cyclin T1; read-out: % Inhibition): 10%
inhibition at 10 µM (CDK9/cyclin T1; read-out: % Inhibition class): < 40%
inhibition at 10 µM (PTK2B (FAK2); read-out: % Inhibition): 18%
inhibition at 10 µM (PTK2B (FAK2); read-out: % Inhibition class): < 40%
inhibition at 10 µM (FLT3; read-out: % Inhibition): 29%
inhibition at 10 µM (FLT3; read-out: % Inhibition class): < 40%
inhibition at 10 µM (AURKA (Aurora A); read-out: % Inhibition): 43%
inhibition at 10 µM (AURKA (Aurora A); read-out: % Inhibition class): 40 to 80%
inhibition at 10 µM (ABL2 (Arg); read-out: % Inhibition): 54%
inhibition at 10 µM (ABL2 (Arg); read-out: % Inhibition class): 40 to 80%
inhibition at 10 µM (PTK2 (FAK); read-out: % Inhibition): 26%
inhibition at 10 µM (PTK2 (FAK); read-out: % Inhibition class): < 40%
inhibition at 10 µM (JAK3; read-out: % Inhibition): 28%
inhibition at 10 µM (JAK3; read-out: % Inhibition class): < 40%
inhibition at 10 µM (MAP2K1 (MEK1); read-out: % Inhibition): 13%
inhibition at 10 µM (MAP2K1 (MEK1); read-out: % Inhibition class): < 40%
inhibition at 10 µM (FGFR4; read-out: % Inhibition): 20%
inhibition at 10 µM (FGFR4; read-out: % Inhibition class): < 40%
inhibition at 10 µM (ALK; read-out: % Inhibition): 32%
inhibition at 10 µM (ALK; read-out: % Inhibition class): < 40%
inhibition at 10 µM (JAK1; read-out: % Inhibition): 9%
inhibition at 10 µM (JAK1; read-out: % Inhibition class): < 40%
inhibition at 10 µM (RPS6KB1 (p70S6K); read-out: % Inhibition): 80%
inhibition at 10 µM (RPS6KB1 (p70S6K); read-out: % Inhibition class): ≥ 80%
selectivity against a panel of 120 disease relevant kinases (RPS6KB1 (p70S6K); SelectScreen panel): RPS6K1-selective inhibitor
Structure (SMILES): Nc1cc(N)c2c(c1)C(=O)NC2=O [RJ1, 4,6-diaminoisoindoline-1,3-dione]
